Source: ChEMBL document CHEMBL4402523, “2-Aminomethylene-5-sulfonylthiazole Inhibitors of Lysyl Oxidase (LOX) and LOXL2 Show Significant Efficacy in Delaying Tumor Growth” (J Med Chem, 2020)
Blank lines part the entries; values can stand above or below the compound they belong to. The source made the active and inactive calls. No cut-off for these calls is given here.

Legend:
[1] = Inhibition of pig skin-derived LOX using cadaverine hydrochloride as substrate preincubated for 1 hr followed by substrate addition by ROS-Glo assay; set-up: species or system Sus scrofa
[2] = Stability in CD1 mouse liver microsomes assessed as parent compound remaining at 10 uM measured after 30 mins by LC-MS/MS analysis; assay type: ADME, Microsome; details: read-out: Stability
[3] = biological target: T1, Lysyl oxidase homolog 2 (Homo sapiens) (UniProt Q9Y4K0); test: Reversible inhibition of human C-terminal His10-tagged LOXL2 (Met1 to Gln774 residues) expressed in mouse NS0 cells assessed as enzyme residual activity at 10 times IC50 using cadaverine hydrochloride as substrate preincubated for 1 hr followed by 100-fold enzyme-compound mixture dilution in …; assay type: cell-based
T1 sequence (whole entry): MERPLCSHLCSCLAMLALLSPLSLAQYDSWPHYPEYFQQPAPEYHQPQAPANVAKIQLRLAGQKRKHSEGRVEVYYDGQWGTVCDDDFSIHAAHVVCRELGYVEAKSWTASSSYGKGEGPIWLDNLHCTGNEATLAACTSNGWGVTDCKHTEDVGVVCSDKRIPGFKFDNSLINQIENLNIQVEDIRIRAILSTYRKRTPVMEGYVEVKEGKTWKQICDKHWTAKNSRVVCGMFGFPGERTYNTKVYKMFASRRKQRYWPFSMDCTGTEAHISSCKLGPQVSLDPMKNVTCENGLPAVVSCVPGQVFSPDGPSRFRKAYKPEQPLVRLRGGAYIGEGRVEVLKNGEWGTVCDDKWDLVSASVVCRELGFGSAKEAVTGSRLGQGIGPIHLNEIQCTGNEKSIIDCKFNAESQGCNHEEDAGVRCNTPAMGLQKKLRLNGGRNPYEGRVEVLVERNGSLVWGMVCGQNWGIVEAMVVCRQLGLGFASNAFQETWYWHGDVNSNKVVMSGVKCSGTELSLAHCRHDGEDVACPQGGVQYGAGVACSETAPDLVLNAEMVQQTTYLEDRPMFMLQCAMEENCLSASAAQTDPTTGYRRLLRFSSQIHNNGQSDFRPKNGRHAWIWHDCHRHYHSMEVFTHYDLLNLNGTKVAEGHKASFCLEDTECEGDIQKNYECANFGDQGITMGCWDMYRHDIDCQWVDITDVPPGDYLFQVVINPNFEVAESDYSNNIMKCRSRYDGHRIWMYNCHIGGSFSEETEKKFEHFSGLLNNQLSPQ

[4] = Stability in Sprague-Dawley rat liver microsomes assessed as parent compound remaining at 10 uM measured after 30 mins by LC-MS/MS analysis; assay type: ADME, Microsome; details: read-out: Stability
Mus musculus = test: Antitumor activity against MMTV-PyMT mouse breast cancer model assessed as reduction in tumor growth at 70 mg/kg, po administered once daily via gavage for 34 days measured twice a week during compound dosing; assay type: functional, organism-based
[5] = Toxicity in MMTV-PyMT mouse breast cancer model assessed as change in body weight at 70 mg/kg, po administered once daily via gavage for 34 days; assay type: organism-based; details: in vivo, 816 h
[6] = Toxicity in MMTV-PyMT mouse breast cancer model assessed as death at 70 mg/kg, po administered once daily via gavage for 34 days; assay type: organism-based; details: in vivo, 816 h

Compound: CS(=O)(=O)c1cc(-c2ccccc2)cc(S(=O)(=O)c2ccc(CN)s2)c1
remaining at 0.5 h, 10 µM [2]: 64%
Activity [3]: 80%

Compound: Cn1cc(-c2cc(S(C)(=O)=O)cc(S(=O)(=O)c3cnc(CN)s3)c2)cn1
IC50 [1]: 2.65 to 3.42 µM

Compound: CCc1cc(-c2cnn(C)c2)cc(S(=O)(=O)c2cnc(CN)s2)c1
remaining at 0.5 h, 10 µM [2]: 76%
remaining at 0.5 h, 10 µM [4]: 82%
Activity (Mus musculus): Active
Activity [5]: Non-Toxic
Activity [6]: Non-Toxic
Activity [3]: 30%

The next lines start with the values.

IC50 [1]: > 100 µM
Compound: CS(=O)(=O)c1cc(-c2ccccc2)cc(S(=O)(=O)c2csc(CN)n2)c1

IC50 [1]: 1.13 to 1.31 µM
Compound: CS(=O)(=O)c1cc(Sc2cnc(CN)s2)cc(-c2ccccc2)c1

IC50 [1]: > 100 µM
Compound: Cn1cc(-c2cc(S(C)(=O)=O)cc(S(=O)(=O)c3csc(CN)n3)c2)cn1

IC50 [1]: 46.5 to 52 µM
Compound: CS(=O)(=O)c1cc(-c2ccccc2)cc(-c2cnc(CN)s2)c1
